According to article PMC8501799, “Constitutive signal bias mediated by the human GHRHR splice variant 1” (Proceedings of the National Academy of Sciences of the …, 2021):

Experiments:
cell cycle = test: Cell cycle analysis (propidium iodide, flow cytometry); type: cell-based; details: 1 μM GHRH, 6 h
Experimental: Following the treatment, the cells were digested by trypsin and collected by centrifugation. Cell pellets were washed with PBS and fixed with 70% (vol/vol) ethanol at 4 °C overnight. Cells were again collected by centrifugation and washed twice with PBS. They were then resuspended in PBS containing 0.2% Triton X-100, 50 μg/mL propidium iodide (PI), and […] RNase A and incubated for 30 min at 4 °C in the dark. After incubation, fluorescence intensity was measured with a NovoCyte flow cytometer (Acea Biosciences). Cells were gated for PI staining and cell accumulation in G1, and S and G2/M phases were calculated using the NovoExpress software.

SV1 = target: T1, SV1 (Homo sapiens, UniProt Q02643); test: cAMP accumulation; type: cell-based; details: mean ± SEM; for Emax: HEK-293T, HEK293T; for ΔLog (τ/KA): operational model, τ corrected by cell surface expression
T1 sequence (Q02643 90-423 limits assumed): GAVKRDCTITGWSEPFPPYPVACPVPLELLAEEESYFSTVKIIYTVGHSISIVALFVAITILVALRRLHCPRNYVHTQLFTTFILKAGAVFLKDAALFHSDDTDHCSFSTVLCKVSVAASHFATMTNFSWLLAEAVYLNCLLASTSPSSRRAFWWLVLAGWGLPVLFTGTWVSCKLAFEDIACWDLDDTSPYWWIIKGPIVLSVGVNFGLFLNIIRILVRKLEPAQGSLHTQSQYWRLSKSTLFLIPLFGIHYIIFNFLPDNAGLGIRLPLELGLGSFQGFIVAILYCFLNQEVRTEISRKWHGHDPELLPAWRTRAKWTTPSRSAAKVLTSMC
Experimental: GHRH-stimulated cAMP accumulation was measured by a LANCE Ultra cAMP kit (PerkinElmer). Briefly, HEK293T cells (24 h after transfection with SV1 or GHRHR) or prostate cancer cells were digested by 0.2% (wt/vol) EDTA and washed once with Dulbecco’s phosphate-buffered saline (PBS). Cells were then resuspended with stimulation buffer (Hanks’ balanced salt solution [HBSS] supplemented with 5 mM HEPES, 0.5 mM IBMX, and 0.1% [wt/vol] bovine serum albumin [BSA], pH 7.4) to a density of 0.6 million cells per milliliter and added to 384-well white plates (3,000 cells per well). […] The reaction was stopped by adding 5 μL Eu-cAMP tracer and 5 μL ULight-anti-cAMP. After 1 h RT incubation, TR-FRET signals (excitation: 320 nm, emission: 615 and 665 nm) were measured by an Envision plate reader (PerkinElmer). cAMP concentrations were interpolated by a standard curve.
All functional study data were analyzed using Prism 7 (GraphPad) and presented as means ± SEM from at least three independent experiments. Concentration-response curves were evaluated with a three-parameter logistic equation. The significance was determined with either two-tailed Student’s t test or one-way ANOVA, and P < 0.05 is considered statistically significant.
Table S2. Effects of residue mutation or truncation in the ECD of GHRHR on GHRH-induced cAMP […]
Mutant pEC50 Emax (% WT GHRHR) expression ΔLog (τ/KA) […]
cAMP accumulation data were analyzed using a three-parameter logistic equation to determine pEC50 and Emax values. pEC50 is the negative logarithm of the molar concentration of agonist that induced half the maximal response. Emax for mutants is expressed as a percentage of the WT GHRHR. Data were analyzed by nonlinear regression using the operational model equation to determine t he logR values (logτ/KA, i.e., logarithm of the transduction ratio). τ is the effi cacy value of the agonist and was corrected by cell surface expression of the receptor. KA is dissociation constant. Changes in transduction ratio (ΔlogR) were calculated to determine the relative effectiveness of the mutants. All values are means ± S.E.M. of at le ast three ind ep en dent experiments (n = 3-5) conducted in quadruplicate. Statistical analysis was carried out by comparing the control responses in the WT GHRHR. **, P < 0.01 and ***, P < 0.001, determined by one-way […]
Table S4. Effects of residue mutation in the ligand-binding pocket of SV1 on GHRH-induced cAMP […]
Mutant pEC50 Emax Cell surface expression ΔLog (τ/KA) […]
effectiveness of the mutants. All values are means ± S.E.M. of four independent experiments (n = 4) conducted in quadruplicate. Statistical analysis was carried out by comparing the control responses in the WT-SV1. *, P < 0.05, **, P < 0.01 and ***, P < 0.001, determined by one-way

For `CC[C@H](C)[C@H](NC(=O)[C@H](C)NC(=O)[C@H](CC(=O)O)NC(=O)[C@H](C)NC(=O)[C@@H](N)Cc1ccc(O)cc1)C(=O)N[C@@H](Cc1ccccc1)C(=O)N[C@H](C(=O)N[C@@H](CC(N)=O)C(=O)N[C@@H](CO)C(=O)N[C@@H](Cc1ccc(O)cc1)C(=O)N[C@@H](CCCNC(=N)N)C(=O)N[C@@H](CCCCN)C(=O)N[C@H](C(=O)N[C@@H](CC(C)C)C(=O)NCC(=O)N[C@@H](CCC(N)=O)C(=O)N[C@@H](CC(C)C)C(=O)N[C@@H](CO)C(=O)N[C@@H](C)C(=O)N[C@@H](CCCNC(=N)N)C(=O)N[C@@H](CCCCN)C(=O)N[C@@H](CC(C)C)C(=O)N[C@@H](CC(C)C)C(=O)N[C@@H](CCC(N)=O)C(=O)N[C@@H](CC(=O)O)C(=O)N[C@H](C(=O)N[C@@H](CCSC)C(=O)N[C@@H](CO)C(=O)N[C@@H](CCCNC(=N)N)C(=O)N[C@@H](CCC(N)=O)C(=O)N[C@@H](CCC(N)=O)C(=O)NCC(=O)N[C@@H](CCC(=O)O)C(=O)N[C@@H](CO)C(=O)N[C@@H](CC(N)=O)C(=O)N[C@@H](CCC(N)=O)C(=O)N[C@@H](CCC(=O)O)C(=O)N[C@@H](CCCNC(=N)N)C(=O)NCC(=O)N[C@@H](C)C(=O)N[C@@H](CCCNC(=N)N)C(=O)N[C@@H](C)C(=O)N[C@@H](CCCNC(=N)N)C(=O)N[C@@H](CC(C)C)C(N)=O)[C@@H](C)CC)C(C)C)[C@@H](C)O` [GHRH, growth hormone–releasing hormone], the “cells in G1 phase” value (cell cycle; decreased from 46.6) was 32.8%, the “cells in G2/M phase” value (cell cycle; increased from 22.8) was 37.7% and the Emax (SV1; Table S4, n = 4 in quadruplicate) was 102 ± 2.28%. For the same compound, the Emax (SV1; Table S2, n = 3-5 in quadruplicate) was 105 ± 2.2%, the “ΔLog (τ/KA)” value (SV1; Table S2, relative to WT GHRHR) was -2.98 ± 0.04 and the “ΔLog (τ/KA)” value (SV1; Table S4, n = 4) was -3.93 ± 0.10.
